In patent publication US20090191283A1, “TREATMENT OF HEADACHES, NECK PAIN, JOINT PAIN AND INFLAMMATORY-TYPE PAIN” (priority 2008, published 2009):

What was measured:
Assay type in all cases: in vivo, human
[1] = tested on: patient with pseudotumor cerebri and morning headache from sleep apnea; assay: Treatment of patient with pseudotumor cerebri; conditions: for outcome of prior treatment: patient history
Method: (III) Treatment of Patient with Pseudotumor Cerebri
A patient presented with daily pseudotumor cerebri and morning headache from sleep apnea, with an intensity of 10/10. […] Patient was treated with 0.2 mg/hr nitroglycerin patch applied 2×/day to shoulder+3 pills of 250 mg sodium selenite/day (Twin Labs)

[2] = tested on: patients with rheumatoid arthritis; assay: Treatment of patients with inflammatory arthropathies: rheumatoid arthritis (case reports)
Method: Treatment of Patient with Inflammatory Arthropathies […]
(b) A patient presented with Rheumatoid Arthritis with pain levels of 10/10 and the following symptoms: morning stiffness, diffuse polyarticular involvement, malaise, weakness, myalgias
Prior treatment included narcotics, antiinflammatories, corticosteroids daily.
Treatment: 0.1 mg/hr nitroglycerin patch applied 2×/day (every 12 hours) to shoulder+2 pills of 250 mg sodium selenite/day (Twin Labs) […]

[3] = tested on: patient with dermatomyositis; assay: Treatment of patient with inflammatory arthropathies: dermatomyositis (case report)
Method: (c) A patient presented with a 10/10 pain level from Dermatomyositis, with the following symptoms: morning stiffness, diffuse polyarticular involvement, malaise, proximal muscle weakness, muscle tenderness
Prior treatment included narcotics, antiinflammatories, corticosteroids, disease-modifying anti-rheumatologic drugs (DMARDs) daily.
Treatment: 0.3 mg/hr nitroglycerin patch applied 2×/day (every 12 hours) to shoulder+3 pills of 250 mg sodium selenite/day (Twin Labs)

[4] = tested on: patients with migraine headaches; assay: Treatment of patients with migraine headaches (case reports)
Method: (I) Treatment of Patients with Migraine Headaches […]
(d) A patient presented with an every other day migraine headache with an intensity of 10/10, and the patient stated “The headaches were so bad that I was unable to work or enjoy my life.” Prior treatment included extensive workup by neurologists.
Treatment: 0.6 mg/hr nitroglycerin patch applied 2×/day (every 12 hours) to ankle for 1 week then shoulder+2 pills of 250 mg sodium selenite/day (Twin Labs) […]

[5] = tested on: patients with cervicogenic tension headaches; assay: Treatment of patients with cervicogenic tension headaches (case reports)
Method: (II) Treatment of Patients with Cervicogenic Tension Headaches
(a) A patient presented with cervicogenic tension headache with “severe” neck pain with an intensity of 7 or 8/10. The frequency of headaches was everyday and prior treatment included narcotics, NTHEs, Tylenol.
Treatment: 0.4 mg/hr nitroglycerin patch initially applied 1×/day to shoulder+2 pills of 250 mg sodium selenite/day (Twin Labs)
(b) A patient presented with cervicogenic headache with an intensity of 3-4×/wk. Prior treatment included narcotics, Tylenol, NTHEs. Patient was treated with 0.2 mg/hr nitroglycerin patch applied 1×/day applied to shoulder+2 pills of 250 mg sodium selenite/day (Twin Labs)
(c) A patient presented with migraine/cervicogenic headache with a frequency of everyday and an intensity of 7/10. Prior treatment included narcotics, NTHEs, acetaminophen, morphine cream.
Treatment: 0.4 mg/hr nitroglycerin patch applied 1×/day applied to shoulder+2 pills of 250 mg sodium selenite/day (initially) then 0.1 mg/hr nitroglycerin patch applied 1×/day applied to ankle+2 pills of 250 mg sodium selenite/day
(d) A patient presented with a daily cervicogenic tension headache, with an intensity of 10/10. Prior treatment included narcotics, Tylenol, NTHEs.
Treatment: 0.2 mg/hr nitroglycerin patch applied 1×/day to shoulder+3 pills of 250 mg sodium selenite/day (Twin Labs)
(e) A patient presented with a daily cervicogenic tension headache, with an intensity of 10/10. Prior treatment included narcotics, Tylenol, NTHEs, trigger point injections
Treatment: 0.2 mg/hr nitroglycerin patch applied 1×/day to shoulder+2 pills of 250 mg sodium selenite/day (Twin Labs)
(f) A patient presented with a daily cervicogenic tension headache, with an intensity of 7-8/10. Prior treatment included narcotics, Tylenol, NTHEs, trigger point injections
(g) A patient presented with a daily cervicogenic tension headache, with an intensity of 9-10/10. Prior treatment included narcotics, Tylenol, NTHEs, trigger point injections, BoTox which worked well for 3 months but is too expensive
Treatment: 0.2 mg/hr nitroglycerin patch applied 2×/day to shoulder+3 pills of 250 mg sodium selenite/day (Twin Labs).
(h) A patient presented with a daily cervicogenic tension headache with an intensity of 5/10. Prior treatment included narcotics, Tylenol, NTHEs, trigger point injections.
(i) A patient presented with a daily cervicogenic tension headache, with an intensity of 7-8/10. Prior treatment included narcotics, Tylenol, NTHEs, trigger point injections

[6] = tested on: patient with hemicrania continua; assay: Treatment of patient with hemicrania continua; conditions: patient history
Method: (II) Treatment of Patient with Hemicrania Continua
A patient presented with daily hemicrania continua with an intensity of 8-9/10. […] Patient was treated with 0.2 mg/hr nitroglycerin patch applied 2×/day to shoulder+2 pills of 250 mg sodium selenite/day (Twin Labs).

[7] = dermatomyositis patient (c), patient history

CC(=O)Nc1nnc(S(N)(=O)=O)s1 [Diamox]
outcome of prior treatment [1]: without much success

CNS(=O)(=O)Cc1ccc2[nH]cc(CCN(C)C)c2c1 [Imitrex, sumatriptan]
effect of Imitrex on treatment-induced worsened headaches ([1]; patient on nitroglycerin patch + selenite): improved

C[C@]12C=CC(=O)C=C1CC[C@@H]1[C@@H]2C(=O)C[C@@]2(C)[C@H]1CC[C@]2(O)C(=O)CO [Prednisone]
side effects of prior treatment ([2]; RA patient (b), patient history, daily corticosteroids): Vertebral fractures and osteonecrosis
initial response to prior treatment [3, 7]: excellent response
side effects of prior treatment [3, 7]: steroid-induced osteoporotic rib and wrist fractures

CNC[C@H](O)c1cccc(O)c1.Cl [SUDAFED, phenylephrine hydrochloride]
alleviation of treatment-induced headache by SUDAFED ([4]; migraine patient (a) on nitroglycerin patch + selenite): partially alleviated
alleviation of treatment-induced headache by SUDAFED ([4]; migraine patient (b) on nitroglycerin patch + selenite): partially alleviated
alleviation of treatment-induced headache by SUDAFED ([4]; migraine patient (d) on nitroglycerin patch + selenite): not alleviated
alleviation of treatment-induced headache by SUDAFED ([4]; migraine patient (h) on nitroglycerin patch + selenite): partially alleviated
alleviation of treatment-induced headache by SUDAFED ([4]; migraine patient on nitroglycerin patch + selenite): partially alleviated
alleviation of treatment-induced headache by SUDAFED ([4]; migraine/tension patient (c) on nitroglycerin patch + selenite): not alleviated
alleviation of treatment-induced headache by SUDAFED ([5]; cervicogenic patient (a) on nitroglycerin patch + selenite): unalleviated
alleviation of treatment-induced headache by SUDAFED ([5]; cervicogenic patient (g) on nitroglycerin patch + selenite): partially alleviated
alleviation of treatment-induced headache by SUDAFED ([5]; cervicogenic patient (i) on nitroglycerin patch + selenite): totally alleviated
alleviation of treatment-induced headache by SUDAFED ([5]; cervicogenic patient on nitroglycerin patch + selenite): alleviated
alleviation of treatment-induced headache by SUDAFED ([2]; RA patient (a) on nitroglycerin patch + selenite): partially alleviated
alleviation of treatment-induced headache by SUDAFED ([2]; RA patient (b) on nitroglycerin patch + selenite): partially alleviated
alleviation of treatment-induced headache by SUDAFED ([2]; RA patient (d) on nitroglycerin patch + selenite): partially alleviated
alleviation of treatment-induced headache by SUDAFED ([2]; RA patient (e) on nitroglycerin patch + selenite): partially alleviated
alleviation of treatment-induced headache by SUDAFED ([3]; dermatomyositis patient (c) on nitroglycerin patch + selenite): partially alleviated

CC1(C)O[C@@H]2[C@@H](CO[C@@]3(COS(N)(=O)=O)OC(C)(C)O[C@@H]23)O1 [Topamax]
outcome of prior treatment ([4]; migraine patient (d), patient history): without success
outcome of prior treatment [1]: without much success

CC(=O)Nc1ccc(O)cc1 [Tylenol]
outcome of prior treatment [6]: without success
outcome of prior treatment [1]: without much success
